Reference: publication PMC9105102, “Development and Biochemical Characterization of Self-Immolative Linker Containing GnRH-III-Drug Conjugates” (International Journal of Molecular Sciences, 2022)
Where two headings read alike, the source gives them in different places.

Tests used:
[1] = test system: A2780 human ovarian cancer cells; assay: cells; assay type: cell-based
Experimental: (§1) For cultivation of A2780 human ovarian and Panc-1 human pancreatic cancer cells, RPMI-1640 medium with 10% FBS, L-glutamine and 1% Penicillin-Streptomycin were used. Cells were cultured in appropriate plastic flasks at 37 °C (humidified atmosphere, 5% CO2/95% air).
(§2) A set-up of 96-well plates was used to study the in vitro antiproliferative activity. Therefore, 5 × 10^3 cells in 100 µL complete medium were seeded to each well. After 24 h, complete medium was removed and cells were treated with 200 µL bioconjugate solution in serum-free medium (concentration range 0.0032–50 µM, control wells were treated with serum-free medium). Medium was taken out after 6 h treatment (PTX conjugates) or 24 h (Dau conjugates), replaced by complete medium and incubation was continued. To determine the cell viability, medium was removed after 72 h and 100 µL resazurin solution [45] (10% Tox-8 in FBS-free medium) was added to each well, followed by additional incubation of 2–3 h. A Tecan infinite 200 pro microplate reader (Tecan Group Ltd., Zürich, Switzerland) was used for fluorescence detection (λEx = 560 and λEm = 590 nm). Experiments were performed at least twice, using three parallels per concentration. The cell viability (and IC50 values) was calculated with GraphPad Prism using a nonlinear regression (sigmoidal dose-response).

[2] = test system: Panc-1 human pancreatic cancer cells; assay: cells; assay type: cell-based; conditions: for activity on Panc-1 cells lower than on A2780: ratio Panc-1 vs A2780
Experimental: as §1, §2

[3] = target: T1, GnRH-R (membranes of human pituitary) (Homo sapiens, UniProt P30968); assay: Radioligand competition assay, displacement of [125I]-GnRH-I-[6D-Trp] (triptorelin), human pituitary membranes; assay type: binding; conditions: for GnRH-R binding of the radiotracer affected: at concentrations up to 1 µM, unrelated peptides; for displacement of radio-labelled triptorelin from GnRH-Rs: human pituitary and human prostate cancer tissues, GnRH unrelated peptides
T1 construct: GnRH-Rs expressed on human pituitary and human prostate cancer cells; from tissue; host or cells: normal human pituitary (anterior lobe), autopsy; membrane homogenate
T1 sequence (P30968 1-328): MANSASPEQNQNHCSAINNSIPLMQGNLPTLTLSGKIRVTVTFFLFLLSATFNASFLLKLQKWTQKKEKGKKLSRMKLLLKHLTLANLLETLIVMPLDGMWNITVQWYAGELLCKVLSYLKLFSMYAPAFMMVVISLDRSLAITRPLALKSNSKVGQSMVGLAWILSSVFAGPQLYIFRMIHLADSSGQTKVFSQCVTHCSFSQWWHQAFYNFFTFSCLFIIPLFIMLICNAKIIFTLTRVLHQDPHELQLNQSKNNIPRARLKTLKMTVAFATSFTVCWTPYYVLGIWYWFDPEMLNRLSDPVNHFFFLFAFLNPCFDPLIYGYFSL
Experimental: (§3) A ligand competition assay with [^125I]-GnRH-I-[^6D-Trp] as radioligand was performed to examine the binding affinity of the GnRH-III-drug conjugates to GnRH-Rs expressed on human pituitary and human prostate cancer cells. Human prostate cancer cells were derived from patients at the time of initial surgical treatment, while tissue samples from normal human pituitary (anterior lobe) were obtained by autopsy. All subjects were informed and gave their consent for inclusion before they participated in the study. The preparation of the cell membranes was carried out according to the literature. The chloramines-T method was used to prepare radioiodinated GnRH-I agonist triptorelin which was purified by RP-HPLC [10, 38, 39, 47]. The displacement of [^125I]-GnRH-I-[^6D-Trp] was studied in an in vitro ligand competition assay to determine the binding affinities of the non-radio-labeled GnRH-III bioconjugates to GnRH-RI [10, 11, 38, 39]. Membrane homogenates containing […] protein were incubated in duplicate or triplicate with 60–80,000 cpm [^125I]-GnRH-I-[^6D-Trp] and rising concentration (1 pM—1 µM) of nonradioactive bioconjugates as competitors in a total volume of […] binding buffer. Protein concentration was determined by the method of Bradford using a Bio-Rad protein assay kit (Bio-Rad Laboratories, Hercules, CA, USA). The LIGAND-PC computerized curve-fitting program of Munson and Rodbard was used to determine the receptor binding characteristics and IC50 values.

[4] = target: T2, GnRH-R (membranes of human prostate cancer specimens) (Homo sapiens, UniProt P30968); assay: Radioligand competition assay, displacement of [125I]-GnRH-I-[6D-Trp] (triptorelin), human prostate cancer membranes; conditions: mean ± SE of two to three determinations, read-out: IC50 Prostate Cancer, competitive inhibition of [125I][6D-Trp]-GnRH-I binding
T2 construct: GnRH-Rs expressed on human pituitary and human prostate cancer cells; from tissue; host or cells: human prostate cancer specimens from patients (surgery); membrane homogenate
T2 sequence (P30968 1-328): T1 sequence (P30968 1-328)
Experimental: as §3

[5] = Degradation of drug conjugates in presence of rat liver lysosomal homogenate (LC-MS); assay type: in vitro ADME; conditions: pH 5, 37 °C
Experimental: The preparation of the rat liver lysosomal homogenate was carried out as recently reported. A Qubit Protein Assay Kit (Thermo Fischer Scientific, Waltham, MA, USA) was used to examine the concentration of the lysosomal proteins.
Initially, a stock solution of the GnRH-III-Dau conjugates in water (5 µg/µL) was prepared. For the degradation reaction, the conjugates and the lysosomal homogenate were diluted together in 0.2 M NaOAc buffer (pH 5) to a concentration of 0.25 µg/µL each. These mixtures were kept at 37 °C and at distinct time points (5 min, 1 h, 2 h, 4 h, 8 h and 24 h), 15 µL of each sample were quenched with 2 µL acetic acid and analyzed by LC-MS (System I).
The GnRH-III-PTX conjugates were dissolved in DMSO to a concentration of 10 mM. The reaction was carried out in 0.2 M NaOAc buffer (pH 5) with 10 µM conjugate and 0.025 µg/mL lysosomal homogenate. The reaction mixtures were incubated at 37 °C and aliquots of 60 μL were taken at 5 min, 1 h, 2 h, 4 h, 8 h and 24 h and quenched with 5 μL of acetic acid. The analysis of the samples was performed by LC–MS (System-II).

[6] = A2780 cells, treatment 24 h (Dau conjugates) or 6 h (PTX compounds), viability at 72 h, mean ± SE of two to three determinations, read-out: A2780 IC50
[7] = Panc-1 cells, treatment 24 h (Dau conjugates) or 6 h (PTX compounds), viability at 72 h, mean ± SE of two to three determinations, read-out: Panc-1 IC50

For `CCCC(=O)NCCCC[C@H](NC(=O)[C@H](Cc1c[nH]c2ccccc12)NC(=O)[C@H](Cc1c[nH]cn1)NC(=O)[C@@H]1CCC(=O)N1)C(=O)N[C@@H](Cc1c[nH]cn1)C(=O)N[C@@H](CC(=O)O)C(=O)N[C@@H](Cc1c[nH]c2ccccc12)C(=O)N[C@@H](CCCCNC(=O)CCCC(=O)N[C@H]1C[C@H](O[C@H]2C[C@](O)(C(C)=O)Cc3c(O)c4c(c(O)c32)C(=O)c2c(OC)cccc2C4=O)O[C@@H](C)[C@H]1O)C(=O)N1CCC[C@H]1C(=O)NCC(N)=O` [compound 23], the IC50 [1, 6] was 67900 ± 25400 nM, the IC50 [2, 7] was > 100000 nM and the IC50 [3] was 9.7 ± 1.07 nM. For the same compound, the IC50 [4] was 8.61 ± 1.08 nM, the “release of the smallest Dau-containing metabolite H-Lys(Dau-glutaryl)-OH” value ([5]; LC-MS) was “confirming the release” and the “release of free Dau by lysosomal enzymes” value ([5]; up to 24 h, LC-MS) was “free Dau could not be detected”.

`CC(=O)O[C@H]1C(=O)[C@@]2(C)[C@H]([C@H](OC(=O)c3ccccc3)[C@]3(O)C[C@H](OC(=O)[C@H](O)[C@@H](NC(=O)c4ccccc4)c4ccccc4)C(C)=C1C3(C)C)[C@]1(OC(C)=O)CO[C@@H]1C[C@@H]2O` [PTX, paclitaxel, reference compound] showed an IC50 ([1]; Homo sapiens, A2780 cells, treatment 24 h (Dau conjugates) or 6 h (PTX compounds), viability at 72 h, mean ± SE of two to three determinations, read-out: A2780 IC50) of 20 ± 1 nM and an IC50 ([2]; Homo sapiens, Panc-1 cells, treatment 24 h (Dau conjugates) or 6 h (PTX compounds), viability at 72 h, mean ± SE of two to three determinations, read-out: Panc-1 IC50) of 170 ± 10 nM.

For `COc1cccc2c1C(=O)c1c(O)c3c(c(O)c1C2=O)C[C@@](O)(C(C)=O)C[C@@H]3O[C@H]1C[C@H](N)[C@H](O)[C@H](C)O1` [Dau, daunorubicin, reference compound], the IC50 ([1]; Homo sapiens, A2780, read-out: A2780 IC50) was 210 ± 10 nM, the IC50 ([2]; Homo sapiens, PANC-1, read-out: Panc-1 IC50) was 2430 ± 580 nM and the “activity on Panc-1 cells lower than on A2780” value [2] was “approximately 10 times”.

With `CCCC(=O)NCCCC[C@H](NC(=O)[C@H]1Cc2ccccc2CN1C(=O)[C@@H]1CCC(=O)N1)C(=O)N[C@@H](Cc1c[nH]cn1)C(=O)N[C@@H](CC(=O)O)C(=O)N[C@@H](Cc1c[nH]c2ccccc12)C(=O)N[C@@H](CCCCNC(=O)CCCC(=O)N[C@H](C(=O)N[C@@H](CCCNC(N)=O)C(=O)Nc1ccc(COC(=O)N[C@H]2C[C@H](O[C@H]3C[C@](O)(C(C)=O)Cc4c(O)c5c(c(O)c43)C(=O)c3c(OC)cccc3C5=O)O[C@@H](C)[C@H]2O)cc1)C(C)C)C(=O)N1CCC[C@H]1C(=O)NCC(N)=O` [compound 11, GnRH-III-[2ΔHis-3D-Tic,8Lys(glutaryl-Val-Cit-PABC-Dau)]] the “activity on Panc-1 cells lower than on A2780” value [2] was “more than 20 times” and the “receptor binding affinity of 11 relative to corresponding Val-Ala conjugate 13” value ([3]; Val-Cit vs Val-Ala) was “twice as high”.

For `CCCC(=O)NCCCC[C@H](NC(=O)[C@H](Cc1c[nH]c2ccccc12)NC(=O)[C@H](Cc1c[nH]cn1)NC(=O)[C@@H]1CCC(=O)N1)C(=O)N[C@@H](Cc1c[nH]cn1)C(=O)N[C@@H](CC(=O)O)C(=O)N[C@@H](Cc1c[nH]c2ccccc12)C(=O)N[C@@H](CCCCNC(=O)CCCC(=O)N[C@H](C(=O)N[C@@H](C)C(=O)Nc1ccc(COC(=O)N(C)CCN(C)C(=O)O[C@@H](C(=O)O[C@H]2C[C@@]3(O)[C@@H](OC(=O)c4ccccc4)[C@@H]4[C@]5(OC(C)=O)CO[C@@H]5C[C@H](O)[C@@]4(C)C(=O)[C@H](OC(C)=O)C(=C2C)C3(C)C)[C@@H](NC(=O)c2ccccc2)c2ccccc2)cc1)C(C)C)C(=O)N1CCC[C@H]1C(=O)NCC(N)=O` [compound 16], the IC50 [1, 6] was 660 ± 180 nM, the IC50 [2, 7] was 4890 ± 1080 nM and the IC50 [3] was 9.86 ± 0.82 nM. For the same compound, the IC50 [4] was 8.47 ± 1.06 nM, the “detection of the diamine-PTX fragment” value ([5]; after 5 min of incubation) was “could be already detected” and the “release of the free PTX” value ([5]; within 24 h) was “could not be detected”.

For `CCCC(=O)NCCCC[C@H](NC(=O)[C@H]1Cc2ccccc2CN1C(=O)[C@@H]1CCC(=O)N1)C(=O)N[C@@H](Cc1c[nH]cn1)C(=O)N[C@@H](CC(=O)O)C(=O)N[C@@H](Cc1c[nH]c2ccccc12)C(=O)N[C@@H](CCCCNC(=O)CCCC(=O)N[C@H](C(=O)N[C@@H](C)C(=O)Nc1ccc(COC(=O)N[C@H]2C[C@H](O[C@H]3C[C@](O)(C(C)=O)Cc4c(O)c5c(c(O)c43)C(=O)c3c(OC)cccc3C5=O)O[C@@H](C)[C@H]2O)cc1)C(C)C)C(=O)N1CCC[C@H]1C(=O)NCC(N)=O` [compound 13], the “activity on Panc-1 cells lower than on A2780” value [2] was “more than 20 times”.

In the case of bombesin [reference compound], the “GnRH-R binding of the radiotracer affected” value [3] is reported as “unable to affect” and the “displacement of radio-labelled triptorelin from GnRH-Rs” value [3] is reported as “not able to displace”.

`CCCC(=O)NCCCC[C@H](NC(=O)[C@H](Cc1c[nH]c2ccccc12)NC(=O)[C@H](Cc1c[nH]cn1)NC(=O)[C@@H]1CCC(=O)N1)C(=O)N[C@@H](Cc1c[nH]cn1)C(=O)N[C@@H](CC(=O)O)C(=O)N[C@@H](Cc1c[nH]c2ccccc12)C(=O)N[C@@H](CCCCN)C(=O)N1CCC[C@H]1C(=O)NCC(N)=O` [Peptide I, GnRH-III-[^4Lys(Bu)]] gave an IC50 ([3]; human pituitary membranes, mean ± SE of two to three determinations, read-out: IC50 Pituitary, competitive inhibition of [125I][6D-Trp]-GnRH-I binding) of 2.72 ± 0.95 nM and an IC50 [4] of 3.11 ± 0.76 nM.

For `CCCC(=O)NCCCC[C@H](NC(=O)[C@H](Cc1c[nH]c2ccccc12)NC(=O)[C@H](Cc1c[nH]cn1)NC(=O)[C@@H]1CCC(=O)N1)C(=O)N[C@@H](Cc1c[nH]cn1)C(=O)N[C@@H](CC(=O)O)C(=O)N[C@@H](Cc1c[nH]c2ccccc12)C(=O)N[C@@H](CCCCNC(=O)CCCC(=O)N(C)CCN(C)C(=O)O[C@@H](C(=O)O[C@H]1C[C@@]2(O)[C@@H](OC(=O)c3ccccc3)[C@@H]3[C@]4(OC(C)=O)CO[C@@H]4C[C@H](O)[C@@]3(C)C(=O)[C@H](OC(C)=O)C(=C1C)C2(C)C)[C@@H](NC(=O)c1ccccc1)c1ccccc1)C(=O)N1CCC[C@H]1C(=O)NCC(N)=O` [compound 25, GnRH-III-[2His-3Trp,8Lys(glutaryl-diamine-PTX)]], the IC50 [1, 6] was 41500 ± 9830 nM, the IC50 [2, 7] was > 100000 nM and the “detection of the diamine-PTX fragment” value ([5]; even after 24 h of incubation) was “could not be detected”.

In the case of somatostatin [reference compound], the “GnRH-R binding of the radiotracer affected” value [3] is reported as “unable to affect” and the “displacement of radio-labelled triptorelin from GnRH-Rs” value [3] is reported as “not able to displace”.
